“Also recorded” adds a separate entry of the source.
Experiments:
bone cells = conditions: cell culture test; cited from earlier work
[1] = target: T1, HERG (Human Ether-a-go-go-Related Gene) channel (Homo sapiens, UniProt Q12809); assay: Evaluation of cardiotoxicity, patch-clamp on HEK293 cells expressing HERG channel; type: cell-based; conditions: HERG peak tail current
T1 construct: expressed in transfected cells; host or cells: HEK293
Procedure: HEK293 cells expressing HERG (Human Ether-a-go-go-Related Gene) channel safely were cultured in MEM (Minimum Essential Medium) supplemented with 10% fetal bovine serum (FBS), 1 mM sodium pyruvate, 0.1 mM non-essential amino acid solution, 100 units/ml penicillin-streptomycin, 100 μg/ml streptomycin sulfate and 100 μg/ml zeocin under the condition of air:CO2=95:5. When the cells were grown to 60-80% confluency, the cells were loaded in the medium supplemented with 0.25% trypsin and 0.02% EDTA (ethylenediaminetertraacetic acid) for 3 minutes. The cells were then washed with a fresh medium and then dispensed on a new plastic culture dish. For the electrophysiological record, the cells were seeded on a glass cover slip of 5 mm in diameter, followed by incubation in a 24-well plate for 5-24 hours. Then, the cells were transferred into the recording chamber.
The current value of all the cells was measured by the conventional patch-clamp technique or Port-a-Patch (Nanion, Germany) semiautomatic technique. The pH of the external bath solution containing 136 mM NaCl, 5.4 mM KCl, 1.8 mM CaCl2, 1 mM MgCl2, 10 mM glucose, and 10 mM HEPES (4-(2-hydroxyethyl)-1-piperazineethanesulfonic acid) was adjusted to 7.4 using NaOH. The pH of the intracellular pipette solution containing 130 mM KCl, 1 mM MgCl2, 10 mM EGTA (ethylene glycol tetraacetic acid), 5 mM Mg-ATP, and mM HEPES was adjusted to 7.2 using KOH.
In the conventional patch-clamp technique, the patch pipette was pulled by a PP-83 pipette puller (Narishige, Tokyo, Japan), so that it had 2-4 MΩ of resistance in the external bath solution. The ionic current was recorded by using EPC7 pulse amplifier (HEKA electronic, Germany). The voltage-clamp amplification was regulated using the pClamp computer program (Axon Instruments, USA), and the obtained data were analyzed. During the recording, the solution above was continually spread on HEK293 cells in the chamber. For the recording, the Port-a-Patch (Nanion, Germany) semiautomatic patch system was used, and the amplifier used herein was EPC10.
The membrane potential was maintained at −80 mV, which was changed to +20 mV for 4 seconds, then changed to −50 mV for 6 seconds and then maintained again at −80 mV. The changes were made every 25 seconds.
To obtain the concentration-reaction curve in the presence of the drug, dose-dependent inhibition was entered into the Hill formula represented by mathematical formula 1 below.
In mathematical formula 1, Idrug indicates the peak tail current in the presence of a drug, Icontrol indicates the maximum peak tail current in the absence of a drug, D indicates the concentration of a drug, h indicates Hill constant, and IC50 indicates the concentration when the half-maximum peak tail current was suppressed.

[2] = target: T2, PPARG (peroxisome proliferator activated receptor-gamma), GST-PPARG-LBD (Homo sapiens, UniProt P37231); assay: LanthaScreen TR-FRET PPARG Competitive Binding Assay; parameters: key: “+” indicates the degree of the binding activity, and as the number of “+” increases, the binding activity is stronger; ++: “+” indicates the degree of the binding activity, and as the number of “+” increases, the binding activity is stronger; +++: “+” indicates the degree of the binding activity, and as the number of “+” increases, the binding activity is stronger; ++++: “+” indicates the degree of the binding activity, and as the number of “+” increases, the binding activity is stronger; conditions: degree of binding activity
T2 construct: 15 μL of 5 nM GST-PPARG-LBD and 5 nM Tb-GST-antibody were added; purchased Invitrogen PV4894
T2 sequence (P37231 238-503 limits assumed): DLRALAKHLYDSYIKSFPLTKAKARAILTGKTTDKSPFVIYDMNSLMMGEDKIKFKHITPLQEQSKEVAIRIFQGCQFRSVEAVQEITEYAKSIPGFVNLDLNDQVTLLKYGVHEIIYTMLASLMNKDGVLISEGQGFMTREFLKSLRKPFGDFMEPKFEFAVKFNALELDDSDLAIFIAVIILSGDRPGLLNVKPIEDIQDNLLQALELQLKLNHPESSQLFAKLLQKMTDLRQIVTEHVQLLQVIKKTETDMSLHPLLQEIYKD
How it was run: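 Ratio of 518 nm to 488 nm time-resolved emission after a 1 h room-temperature incubation, in competition format with GST-PPARG ligand-binding domain. Values are expressed as 100% minus compound-to-vehicle ratio and related to rosiglitazone binding.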

CYP 2C9 = target: T3, CYP 2C9 (Homo sapiens, UniProt P11712); assay: CYP (cytochrome P450)-suppressing effect, Invitrogen Vivid kit; type: in vitro ADME
T3 construct: purchased Invitrogen P2861
T3 sequence (P11712 whole entry): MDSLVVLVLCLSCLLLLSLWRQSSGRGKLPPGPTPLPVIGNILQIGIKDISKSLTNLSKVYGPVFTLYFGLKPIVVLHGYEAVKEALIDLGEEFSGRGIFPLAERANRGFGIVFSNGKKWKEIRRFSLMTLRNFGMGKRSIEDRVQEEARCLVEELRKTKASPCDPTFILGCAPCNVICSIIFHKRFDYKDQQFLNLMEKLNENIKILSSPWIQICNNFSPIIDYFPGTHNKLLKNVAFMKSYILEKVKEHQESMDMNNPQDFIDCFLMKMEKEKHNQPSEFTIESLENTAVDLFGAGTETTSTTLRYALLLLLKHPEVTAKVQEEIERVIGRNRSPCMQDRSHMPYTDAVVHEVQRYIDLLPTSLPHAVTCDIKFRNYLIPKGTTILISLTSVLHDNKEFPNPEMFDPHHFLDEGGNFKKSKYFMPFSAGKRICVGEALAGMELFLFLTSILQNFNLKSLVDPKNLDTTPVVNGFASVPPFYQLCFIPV
Procedure: (§1) To evaluate the CYP (cytochrome P450)-suppressing activity of the compounds prepared in the examples of the invention, the following experiment was performed.
(§2) The analysis of CYP1A2, 2C19, and 3A4 suppressing activity was performed by using a BD GENTEST (459100, 459400, and 459500) kit, and the analysis of CYP 2C9- and 2D6-suppressing activity was performed by using an Invitrogen (P2861 and P2862) kit.
(§3) When the Invitrogen kit was used, the compounds of the present invention were diluted in Vivid CYP450 reaction buffer (1×) at the final concentration of 2.5×. The P450 BACULOSOMES sample and Regeneration system (100×) were diluted in Vivid CYP450 reaction buffer (1×) at different proper concentrations. 80 μL of the compound of the invention (2.5×) and […] of the diluted P450 BACULOSOMES sample mixture were mixed in a U-bottom 96-well plate, followed by pre-incubation for 10 minutes. Vivid CYP450 Substrate and NADP+ (100×) were diluted in Vivid CYP450 reaction buffer (1×) at a desired concentration, respectively, according to their corresponding types of CYP450 and substrates. 20 μL of Substrate-NADP+ mix was loaded in the plate when the pre-incubation had been completed, followed by reaction for 1 hour. Upon completion of the reaction, the reaction mixture was transferred in a white plate and fluorescent wavelength was measured with a microplate reader (2C9 excitation 415 nm, emission 460 nm, 2D6 excitation 400 nm, emission 502 nm).
(§4) The test results were calculated by the following formula:
(§5) (1−(fluorescence value of the test material/fluorescence value of the vehicle))×100%.

CYP 2D6 = target: T4, CYP 2D6 (Homo sapiens, UniProt P10635); assay: as above; type: in vitro ADME
T4 construct: purchased Invitrogen P2862
T4 sequence (P10635 whole entry): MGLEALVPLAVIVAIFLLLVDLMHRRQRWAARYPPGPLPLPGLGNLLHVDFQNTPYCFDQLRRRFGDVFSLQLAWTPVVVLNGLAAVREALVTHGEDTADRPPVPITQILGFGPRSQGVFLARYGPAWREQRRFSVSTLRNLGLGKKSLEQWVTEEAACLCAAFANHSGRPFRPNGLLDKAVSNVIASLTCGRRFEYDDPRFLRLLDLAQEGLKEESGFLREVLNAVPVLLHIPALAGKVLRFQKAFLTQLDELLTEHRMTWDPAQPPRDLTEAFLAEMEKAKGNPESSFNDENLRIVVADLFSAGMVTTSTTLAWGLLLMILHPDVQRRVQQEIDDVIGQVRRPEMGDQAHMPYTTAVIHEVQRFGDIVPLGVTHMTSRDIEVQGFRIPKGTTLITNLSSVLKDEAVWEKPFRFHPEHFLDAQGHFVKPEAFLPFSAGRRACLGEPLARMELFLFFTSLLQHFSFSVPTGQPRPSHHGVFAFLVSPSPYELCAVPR
Procedure: as §1, §2, §3, §4, §5

[3] = tested on: CYP isozymes 1A2, 2C9, 2C19, and 2D6; assay: CYP suppression compared with comparative examples (Table 3); type: in vitro ADME; conditions: result in words
Procedure: as §1, §2, §3
(§6) When the BD GENTEST kit was used, the compounds of the present invention were diluted in acetonitrile at the final concentration of 50×. The NADPH-Cofactor mix was prepared by diluting the Cofactor, G6PDH, and control protein provided by the kit in DW according to the instructed concentration. 4 μL of the compound of the example (50×) was mixed with 96 μL of NADPH-Cofactor mix in a 96-well plate, followed by pre-incubation in a 37° C. incubator for 10 minutes.
(§7) The enzyme/substrate mixture was diluted in the buffer (0.5 M potassium phosphate, pH 7.4) provided by the kit according to the instructed concentration. Each CYP450 enzyme substrate was diluted in DW at a desired concentration respectively according to the corresponding types of CYP450. 100 μL of the enzyme/substrate mixture was loaded in the plate when the pre-incubation had been completed, followed by reaction in a 37° C. incubator for 15 minutes (1A2) and 30 minutes (3A4 and 2C19). Upon completion of the reaction, the mixture was transferred to a white plate, and the fluorescent wavelength was measured with a microplate reader (1A2, 2C19 excitation 410 nm, emission 460 nm; 3A4, excitation 409 nm, emission 530 nm).
as §4, §5

CYP 2C19 = target: T5, CYP 2C19 (Homo sapiens, UniProt P33261); assay: CYP (cytochrome P450)-suppressing effect, BD GENTEST kit; type: in vitro ADME
T5 construct: purchased BD GENTEST 459400
T5 sequence (P33261 whole entry): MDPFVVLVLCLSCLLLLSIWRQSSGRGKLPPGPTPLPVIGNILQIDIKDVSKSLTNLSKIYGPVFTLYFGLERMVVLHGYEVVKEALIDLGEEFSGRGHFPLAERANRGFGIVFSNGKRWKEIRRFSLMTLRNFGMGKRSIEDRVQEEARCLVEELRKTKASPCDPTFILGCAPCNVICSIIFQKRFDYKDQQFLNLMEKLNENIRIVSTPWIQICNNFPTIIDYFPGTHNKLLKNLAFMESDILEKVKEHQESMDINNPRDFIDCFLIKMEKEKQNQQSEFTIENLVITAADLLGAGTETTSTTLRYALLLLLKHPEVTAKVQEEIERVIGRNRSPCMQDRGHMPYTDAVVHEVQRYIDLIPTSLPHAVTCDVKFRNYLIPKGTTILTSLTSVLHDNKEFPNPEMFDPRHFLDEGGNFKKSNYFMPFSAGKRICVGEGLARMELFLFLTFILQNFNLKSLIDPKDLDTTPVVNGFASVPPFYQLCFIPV
Procedure: as §1, §2, §6, §7, §4, §5

CYP 3A4 = target: T6, CYP 3A4 (Homo sapiens, UniProt P08684); assay: as above; type: in vitro ADME
T6 construct: purchased BD GENTEST 459500
T6 sequence (P08684 whole entry): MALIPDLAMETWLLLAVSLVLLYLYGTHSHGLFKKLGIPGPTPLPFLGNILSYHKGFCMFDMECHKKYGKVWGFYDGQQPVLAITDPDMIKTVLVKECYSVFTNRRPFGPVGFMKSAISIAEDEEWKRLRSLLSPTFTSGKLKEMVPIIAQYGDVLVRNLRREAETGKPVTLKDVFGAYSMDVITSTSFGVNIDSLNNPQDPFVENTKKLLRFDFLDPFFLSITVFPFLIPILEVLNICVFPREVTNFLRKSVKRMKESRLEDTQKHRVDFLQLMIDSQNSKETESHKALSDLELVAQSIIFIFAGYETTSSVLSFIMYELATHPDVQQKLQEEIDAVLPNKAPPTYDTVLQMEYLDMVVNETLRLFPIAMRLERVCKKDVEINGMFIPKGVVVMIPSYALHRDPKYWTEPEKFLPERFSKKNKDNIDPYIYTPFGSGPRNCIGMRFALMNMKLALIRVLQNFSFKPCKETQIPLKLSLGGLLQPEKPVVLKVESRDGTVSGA
Procedure: as §1, §2, §6, §7, §4, §5

CYP1A2 = target: T7, CYP1A2 (Homo sapiens, UniProt P05177); assay: as above; type: in vitro ADME
T7 construct: purchased BD GENTEST 459100
T7 sequence (P05177 1-516): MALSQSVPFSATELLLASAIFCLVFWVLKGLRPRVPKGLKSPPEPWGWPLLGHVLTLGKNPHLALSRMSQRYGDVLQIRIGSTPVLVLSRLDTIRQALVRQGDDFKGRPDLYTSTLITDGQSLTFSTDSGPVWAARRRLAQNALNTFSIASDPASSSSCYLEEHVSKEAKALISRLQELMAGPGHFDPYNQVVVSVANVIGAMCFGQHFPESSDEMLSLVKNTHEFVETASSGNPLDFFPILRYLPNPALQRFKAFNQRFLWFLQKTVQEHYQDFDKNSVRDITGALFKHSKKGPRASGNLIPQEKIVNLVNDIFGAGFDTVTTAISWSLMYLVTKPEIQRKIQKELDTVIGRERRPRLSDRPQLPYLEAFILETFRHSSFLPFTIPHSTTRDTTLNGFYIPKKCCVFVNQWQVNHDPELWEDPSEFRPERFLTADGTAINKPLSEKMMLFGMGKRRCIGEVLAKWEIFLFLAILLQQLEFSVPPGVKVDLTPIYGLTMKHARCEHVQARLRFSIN
Procedure: as §1, §2, §6, §7, §4, §5

T1 sequence (Q12809 whole entry): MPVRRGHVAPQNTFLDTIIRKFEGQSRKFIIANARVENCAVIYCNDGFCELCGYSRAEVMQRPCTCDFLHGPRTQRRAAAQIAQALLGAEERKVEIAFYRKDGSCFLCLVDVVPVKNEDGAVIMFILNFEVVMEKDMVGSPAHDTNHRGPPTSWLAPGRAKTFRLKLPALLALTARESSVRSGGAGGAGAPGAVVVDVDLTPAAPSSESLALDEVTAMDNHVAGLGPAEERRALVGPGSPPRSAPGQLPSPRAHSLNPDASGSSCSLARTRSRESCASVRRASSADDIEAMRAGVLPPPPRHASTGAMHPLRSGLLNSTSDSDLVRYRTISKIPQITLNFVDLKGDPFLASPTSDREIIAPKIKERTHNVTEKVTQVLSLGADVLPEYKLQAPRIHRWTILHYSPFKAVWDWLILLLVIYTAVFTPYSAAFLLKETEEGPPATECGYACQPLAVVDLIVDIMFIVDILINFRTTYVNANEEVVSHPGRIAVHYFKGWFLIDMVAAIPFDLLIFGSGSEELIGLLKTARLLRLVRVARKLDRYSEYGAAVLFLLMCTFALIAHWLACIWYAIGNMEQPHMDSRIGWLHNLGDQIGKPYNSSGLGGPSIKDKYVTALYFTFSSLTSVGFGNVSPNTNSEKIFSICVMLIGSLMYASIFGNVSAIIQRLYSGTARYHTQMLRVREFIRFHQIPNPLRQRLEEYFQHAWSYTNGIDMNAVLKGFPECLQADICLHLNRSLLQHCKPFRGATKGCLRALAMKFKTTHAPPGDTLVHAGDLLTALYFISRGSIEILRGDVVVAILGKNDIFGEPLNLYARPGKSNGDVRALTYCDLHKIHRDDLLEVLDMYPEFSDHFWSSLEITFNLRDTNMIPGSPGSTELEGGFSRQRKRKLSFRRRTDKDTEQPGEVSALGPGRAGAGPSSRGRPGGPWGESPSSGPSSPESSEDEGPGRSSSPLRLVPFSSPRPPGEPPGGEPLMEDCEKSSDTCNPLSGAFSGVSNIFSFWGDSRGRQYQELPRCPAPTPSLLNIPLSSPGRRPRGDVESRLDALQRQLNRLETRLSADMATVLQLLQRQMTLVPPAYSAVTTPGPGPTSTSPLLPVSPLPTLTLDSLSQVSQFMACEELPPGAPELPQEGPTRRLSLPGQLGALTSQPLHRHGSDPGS

Compound | IC50 [1] [µM] | Binding assay (1 μLM) [2] | also measured
Cc1c(C)n(Cc2ccc(-c3ccccc3C(=O)O)cc2)c2ccc(C(=O)N[C@@H](C)c3ccc([N+](=O)[O-])cc3)cc12 [SR1664] | – | – | fat generation in bone cells (bone cells): does not induce problems such as fat generation in bone cells
C[C@H](NC(=O)c1ccc2c(c1)CCCN2Cc1ccccc1-c1ccc(C(=O)O)cc1)c1ccc(C#N)cc1 [Example 157, (S)-2′-((6-((1-(4-cyanophenyl)ethyl)carbamoyl)-3,4-dihydroquinoline-1(2H)-yl)methyl)-[1,1′-biphenyl]-4-carboxylic acid] | 42.7 | ++ | –
C[C@H](NC(=O)c1ccc2c(c1)CCCN2Cc1ccccc1-c1ccc(C(=O)O)cc1)c1ccc([N+](=O)[O-])cc1 [Example 155, (S)-2′-((6-((1-(4-nitrophenyl)ethyl)carbamoyl)-3,4-dihydroquinoline-1(2H)-yl)methyl)-[1,1′-biphenyl]-4-carboxylic acid] | 73.6 | + | –
C[C@H](NC(=O)c1ccc2c(c1)CCCN2Cc1ccccc1-c1ccc(C(=O)O)cc1)c1ccc2ccccc2c1 [Example 156, (S)-2′-((6-((1-(naphthalene-2-yl)ethyl)carbamoyl)-3,4-dihydroquinoline-1(2H)-yl)methyl)-[1,1′-biphenyl]-4-carboxylic acid] | 55.2 | + | –
Cc1ccc([C@H](C)NC(=O)c2ccc3c(c2)CCCN3Cc2ccc(-c3ccccc3C(=O)[O-])cc2)cc1F.[Na+] [Example 56, sodium (S)-4′-((6-((1-(3-fluoro-4-methylphenyl)ethyl)carbamoyl)-3,4-dihydroquinoline-1(2H)-yl)methyl)-[1,1′-biphenyl]-2-carboxylate] | 72.6 | ++++ | CYP(10 μL, %) 2C9 (CYP 2C9): 55.36%; CYP(10 μL, %) 2D6 (CYP 2D6): 94.15%; suppression of CYP isozymes 1A2, 2C9, 2C19, and 2D6 compared with SR1664 and SR1824 [3]: less than the compounds of the comparative examples; also recorded: less strongly than the compounds of the Comparative Examples; CYP(10 μL, %) 2C19 (CYP 2C19): 85.71%; CYP(10 μL, %) 3A4 (CYP 3A4): 54.62%; CYP(10 μL, %) 1A2 (CYP1A2): 100.73%

Source: patent publication US20160355483A1, “COMPOUND BINDING TO PPARG BUT NOT ACTING AS PROMOTER AND PHARMACEUTICAL COMPOSITION FOR TREATING PPARG-RELATED DISEASES CONTAINING SAME AS ACTIVE INGREDIENT” (Hyundai Pharm Co., Ltd., priority 2014, published 2016)
